Reference: US5482941A, “Quinazolinone antianginal agents” (Pfizer Inc., priority 1991, dated 1996)

Legend:
[1] = test system: rabbit; assay: Safety profile, acute toxicity in rabbit; format: in vivo
[2] = target: T1, cGMP-inhibited cAMP PDE (Oryctolagus cuniculus, UniProt G1ST54); assay: In vitro inhibition of cGMP-inhibited cAMP PDE; format: biochemical; settings: cGMP-inhibited cAMP PDE from rabbit platelets
T1 construct: The PDE enzymes are isolated from rabbit platelets and rat kidney; from tissue; host or cells: rabbit platelets
T1 sequence (G1ST54 1-1128): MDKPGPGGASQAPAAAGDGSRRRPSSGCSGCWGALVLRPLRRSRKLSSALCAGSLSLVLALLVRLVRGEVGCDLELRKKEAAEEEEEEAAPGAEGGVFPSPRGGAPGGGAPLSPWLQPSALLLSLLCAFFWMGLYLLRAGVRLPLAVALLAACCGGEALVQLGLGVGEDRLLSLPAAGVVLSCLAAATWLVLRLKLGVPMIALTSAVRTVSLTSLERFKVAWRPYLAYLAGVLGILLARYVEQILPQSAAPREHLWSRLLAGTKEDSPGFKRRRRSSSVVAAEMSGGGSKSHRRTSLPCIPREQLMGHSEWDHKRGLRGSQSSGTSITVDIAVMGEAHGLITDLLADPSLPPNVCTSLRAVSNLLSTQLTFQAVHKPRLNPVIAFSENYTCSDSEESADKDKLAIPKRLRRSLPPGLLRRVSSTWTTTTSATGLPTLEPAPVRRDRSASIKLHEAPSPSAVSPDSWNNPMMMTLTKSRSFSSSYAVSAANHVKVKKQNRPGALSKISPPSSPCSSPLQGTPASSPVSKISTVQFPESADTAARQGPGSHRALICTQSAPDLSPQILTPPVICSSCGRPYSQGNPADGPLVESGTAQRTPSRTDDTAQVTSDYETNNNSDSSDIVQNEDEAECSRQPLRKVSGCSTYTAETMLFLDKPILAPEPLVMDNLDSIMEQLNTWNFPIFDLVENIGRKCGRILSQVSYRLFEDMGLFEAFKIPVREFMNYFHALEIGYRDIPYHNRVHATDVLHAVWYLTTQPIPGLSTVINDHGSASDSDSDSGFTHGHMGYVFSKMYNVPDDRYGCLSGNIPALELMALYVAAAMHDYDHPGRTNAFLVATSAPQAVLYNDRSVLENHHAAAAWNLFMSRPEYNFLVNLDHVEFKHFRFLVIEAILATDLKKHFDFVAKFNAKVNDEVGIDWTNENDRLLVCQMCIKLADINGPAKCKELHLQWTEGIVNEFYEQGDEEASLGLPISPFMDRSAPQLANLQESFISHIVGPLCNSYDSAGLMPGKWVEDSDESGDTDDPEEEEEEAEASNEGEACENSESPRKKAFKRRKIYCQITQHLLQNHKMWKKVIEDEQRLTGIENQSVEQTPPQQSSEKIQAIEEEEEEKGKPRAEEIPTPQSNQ
Method: (§1) Phosphodiesterase activity
(§2) Compound affinities for cGMP and cAMP PDEs are assessed by determination of their IC50 values (the concentration of inhibitor required for 50% inhibition of enzyme activity). The PDE enzymes are isolated from rabbit platelets and rat kidney, essentially by the method of W. J. Thompson et al. (Biochem., 1971, 10, 311). The calcium/calmodulin (Ca/CAM)-independentcGMP PDE and the cGMP-inhibited cAMP PDE enzymes are obtained from rabbit platelets whilst, of the four major PDE enzymes of the rat kidney, the Ca/CAM-dependent cGMP PDE (fraction I) is isolated. Assays are performed using a modification of the "batch" method of W. J. Thompson and M. M. Appleman (Biochem., 1979, 18, 5228).

[3] = test system: calcium/calmodulin (Ca/CAM)-independent cGMP PDE; assay: In vitro inhibition of Ca/CAM-independent cGMP PDE; format: biochemical, rabbit; settings: between Ca/CAM-independent cGMP PDE and cGMP-inhibited cAMP PDE (IC50 cAMP / IC50 cGMP)
Method: as §1, §2

[4] = target: T2, calcium/calmodulin (Ca/CAM)-independent cGMP PDE (Oryctolagus cuniculus, UniProt G1SX67); assay: In vitro inhibition of Ca/CAM-independent cGMP PDE; format: biochemical, rabbit; settings: Ca/CAM-independent cGMP PDE from rabbit platelets, in vitro
T2 construct: The PDE enzymes are isolated from rabbit platelets and rat kidney; from tissue; host or cells: rabbit platelets
Method: as §1, §2

Row | SMILES | IC50 [2] [nM] | IC50 [4] [nM] | signs of adverse acute toxicity ([1]; doses of up to 10 mg/kg i.d.) | SELECTIVITY RATIO [3] | signs of adverse acute toxicity ([1]; doses of up to 1 mg/kg i.d.)
1 | CCOc1ccc(S(=O)(=O)N2CCN(CCO)CC2)cc1-c1nc2cccc(C)c2c(=O)[nH]1 [Example 4, 2-{2-Ethoxy-5-[4-(2-hydroxyethyl)-1-piperazinylsulphonyl]phenyl}-5-methylquinazolin-4(3H)-one] |  |  | no signs of adverse acute toxicity being observed |  | 
2 | CCOc1ccc(S(=O)(=O)N2CCN(CCO)CC2)cc1-c1nc2c(C)cccc2c(=O)[nH]1 [Example 5, 2-{2-Ethoxy-5-[4-(2-hydroxyethyl)-1-piperazinylsulphonyl]phenyl}-8-methylquinazolin-4(3H)-one] | > 100000 | 37 | no signs of adverse acute toxicity being observed | > 2,702 | 
3 | CCCOc1ccc(C=CC(=O)N2CCN(C)CC2)cc1-c1nc2c(C)cccc2c(=O)[nH]1 [Example 9] | > 100000 | 37 |  | > 2,702 | no signs of adverse acute toxicity being observed
4 | CCOc1ccc(C(O)CN2CCOCC2)cc1-c1nc2c(C)cccc2c(=O)[nH]1 (centres unmarked) [Example 17, 2-[2-Ethoxy-5-(1-hydroxy-2-morpholinoethyl)phenyl]-8-methylquinazolin-4(3H)-one] | > 100000 | 53 |  | > 1,886 | 
5 | CCOc1ccc(S(=O)(=O)N2CCN(CCO)CC2)cc1-c1nc2c(C(N)=O)cccc2c(=O)[nH]1 [Example 19, 8-Carbamoy-2-{2-ethoxy-5-[4-(2-hydroxyethyl)-1-piperazinylsulphonyl]phenyl}quinazolin-4(3H)-one] | 67000 | 34 |  | 1,970 | 

Continued, in another order:

Row | IC50 [2] [nM] | IC50 [4] [nM] | SMILES | signs of adverse acute toxicity ([1]; doses of up to 10 mg/kg i.d.) | SELECTIVITY RATIO [3] | signs of adverse acute toxicity ([1]; doses of up to 1 mg/kg i.d.)
6 | > 100000 | 6.5 | CCCOc1ccc(S(=O)(=O)N2CCN(CCO)CC2)cc1-c1nc2c(C)cccc2c(=O)[nH]1 [Example 6] |  | > 15,384 | 
7 | > 100000 | 54 | CCCOc1ccc(C=CC(=O)OC(C)(C)C)cc1-c1nc2c(C)cccc2c(=O)[nH]1 [Example 10, t-Butyl 3-(8-methylquinazolin-4(3H)-on-2-yl)-4-n-propoxycinnamate] |  | > 1,851 | 
8 | > 100000 | 14 | CCCOc1ccccc1-c1nc2c(C(=O)NCC)cccc2c(=O)[nH]1 [Example 21, 8-Ethylcarbamoyl-2-(2-n-propoxyphenyl)quinazolin-4(3H)-one] |  | > 7,142 | 
9 | > 100000 | 49 | CCCOc1ccc(C(C)=O)cc1-c1nc2c(C)cccc2c(=O)[nH]1 [Example 22, 2-(5-Acetyl-2-n-propoxyphenyl)-8-methylquinazolin-4(3H)-one] |  |  | 
